Experimental data taken from patent publication US6696493B2, “Treating chronic uremic patients undergoing periodic dialysis” (Sigma-Tau Industrie Farmaceutiche Riunite S.p.A., priority 2000, dated 2004).
“Also recorded” adds a separate entry of the source.

Assays:
perfused heart = experiment: low-pressure or low-flow ischaemia model, perfused heart (Langendorff)
Source text: In this example, the low-pressure or low-flow ischaemia model was used, which is a model recognised as valid for cardiac ischaemia (Bolukoglu, H. et al. Am. J. Physiol. 1996: 270; H817-26).
The treatment schedule is illustrated in FIG. 1., in which the letters A-F denote the heart effluent sampling times for the measurement of metabolites. The hearts are removed from the animals and mounted on a Langerdorff appliance. The perfusion medium replacing the blood was a Krebs-Heinsleit standard bicarbonate buffer containing glucose 12 mM as energy source for cardiac metabolism.
After 30 minute perfusion at a pressure of 100 cm of water, ischaemia was induced by reducing the perfusion pressure of the heart to 25 cm of water, thus reducing coronary flow from approximately 2 ml/min to approximately 0.3 ml/min. Reduction of the perfusion pressure gives rise to ischaemia, since the heart will pump the fluid in the low-perfusion area rather than via the coronary bloodstream, supplying the flow to the heart.
This control model was compared with hearts perfused with L-carnitine 10 mM or L-carnitine fumarate 10 mM.
Cardiac function was tested in three different ways.
In the first, the NRM ^31P signal was monitored in real time.
This signal provides the best indication of the energy status of the heart.
In the second, the haemodynamics of the heart was measured by means of a pressure transducer mounted to measure the perfusion pressure. The haemodynamic measurements include heart rate, relative dP/dt (measurement of the contraction force of the heart) and the cardiac contraction amplitude. Coronary flow was also measured as an indicator of the heart's ability to provide oxygen and energy for its own metabolism.
In the third type of test, the metabolites and the enzyme LDH released by the heart were analysed in the effluent. The release of LDH indicates damage to cardiac tissue. The release of metabolites by the heart was tested by means of mass spectrometry coupled with gas chromatography.
The procedures of example 1 were substantially repeated, with the addition of a treatment with carnitine alone as a further control.

hemodialysis patients = details: i.v. 20 mg/kg for six months, then 10 mg/kg, after each dialysis session; cited from earlier work
[1] = system: maintenance hemodialysis patients; details: i.v. 20 mg/kg after each dialysis session; cited from earlier work
patients = details: oral supplementation, cited from earlier work
[2] = cited from earlier work
[3] = 10 mM, post-ischemic, vs control hearts

Structure (SMILES) | release of LDH in heart effluent (perfused heart; 10 mM in perfusion medium, low-flow ischaemia, vs control hearts, fumarate) | reserves of high-energy phosphate (creatine phosphate, 31P NMR) (perfused heart; 10 mM, after 45 minutes of ischaemia, vs control hearts) | malate released by the heart (effluent) (perfused heart; 10 mM, low-flow ischaemia, GC-MS of effluent) | lactate released by the heart (effluent) (perfused heart; 10 mM, low-flow ischaemia, GC-MS of effluent, fumarate) | coronary flow (perfused heart; [3]) | post-ischemic cardiac contraction amplitude (perfused heart; [3]) | succinate released by the heart (effluent) (perfused heart; Example 2, FIG. 3B, compared to lactate) | ATP peaks (alpha, beta, gamma phosphate, 31P NMR) (perfused heart; Example 2, after 40 minutes of ischaemia, FIG. 2) | abnormal serum fatty acid profile (hemodialysis patients) | dialytic symptoms [1] | effect on serum lipid profile [1] | exercise capability, sense of well being [1] | quality of life, early stage of treatment (patients; early stage of treatment) | quality of life, long term treatment (patients; long term treatment (six months)) | bioavailability through the oral route [2]
C[N+](C)(C)C[C@H](O)CC(=O)[O-].O=C(O)/C=C/C(=O)O [carnitine fumarate, L-carnitine fumarate] | reduced release of LDH; also recorded: affords protection against ischemic damage | greater in treated hearts | more malate | less lactate; also recorded: lactate reduction | greater | greater | low amount of succinate as compared to lactate |  |  |  |  |  |  |  | 
C[N+](C)(C)C[C@H](O)CC(=O)[O-] [carnitine, L-carnitine] |  |  |  |  |  |  |  | lacking | partial correction | decrease | does not seem to have a great lipid-lowering potential | improvement | effective in improving the quality of life | not sustained | subject to saturation mechanism
